Assay results taken from patent publication US7074801B1, “Nitrogen-containing condensed cyclic compound having a pyrazolyl group as a substituent group and pharmaceutical composition thereof” (Eisai Co., Ltd., priority 2001, dated 2006).
pIC50: −log10 of the molar value. Structures can show the parent of a compound that is named as a salt.

System: STAT6
Assay: Inhibitory test on STAT6 activation: IL-4-induced alkali phosphatase STAT6 reporter in 293 cells stably expressing the STAT6 gene and STAT6 reporter gene
Format: cell-based
Settings: HEK293; Table 2; 1 ng/ml human recombinant IL-4, 16 hours, 293 cells with STAT6 reporter; read-out: Inhibitory activity IC50 (concentration at which the alkali phosphatase activity induced by IL-4 was inhibited by 50%)
In short: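 HEK293 clone stably carrying STAT6 and a STAT6-element-driven alkaline phosphatase reporter, 5000 cells/well. Compound (DMSO ≤0.1%) plus 1 ng/ml human IL-4 for 16 hours. Supernatant heat-treated 65° C. 10 minutes, then alkaline phosphatase measured fluorometrically in carbonate buffer.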

Row | SMILES | pIC50
1 | CN(C)S(=O)(=O)c1ccc(N2CCN(c3ncnc4ccc(-c5cn[nH]c5)cc34)CC2)cc1 [Example 921, N,N-Dimethyl-4-{4-[6-(1H-pyrazol-4-yl)quinazolin-4-yl]piperazin-1-yl} benzene sulfonamide] | > 8.00
2 | CS(=O)(=O)c1ccc(N2CCN(c3ncnc4ccc(-c5cn[nH]c5)cc34)CC2)s1 [Example 923, 4-[4-(5-Methylsulfonylthiophen-2-yl)piperazin-1-yl]-6-(1H-pyrazol-4-yl)quinazoline trihydrochloride] | > 8.00
3 | Cc1cccc(N2CCN(c3ncnc4ccc(-c5cn[nH]c5)cc34)CC2)c1 [Example 934, 6-(1H-Pyrazol-4-yl)-4-(4-m-tolylpiperazin-1-yl)-quinazoline tri-trifluoroacetate] | > 8.00
4 | c1ccc(N2CCN(c3ncnc4ccc(-c5cn[nH]c5)cc34)CC2)nc1 [Example 936, 6-(1H-Pyrazol-4-yl)-4-(4-pyridin-2-yl-piperazin-1-yl)quinazoline tri-trifluoroacetate] | > 8.00
5 | CS(=O)(=O)c1cccc(N2CCN(c3ncnc4ccc(-c5cn[nH]c5)cc34)CC2)c1 [Example 946, 4-[4-(3-Methylsulfonylphenyl)piperazin-1-yl]-6-(1H-pyrazol-4-yl)quinazoline tri-trifluoroacetate] | > 8.00
6 | O=S(=O)(CCO)c1cccc(N2CCN(c3ncnc4ccc(-c5cn[nH]c5)cc34)CC2)c1 [Example 951, 2-(3-{4-[6-(1H-Pyrazol-4-yl)quinazolin-4-yl]piperazin-1-yl}benzenesulfonyl)ethanol tri-trifluoroacetate] | 7.00 to 8.00
7 | CNS(=O)(=O)c1cccc(N2CCN(c3ncnc4ccc(-c5cn[nH]c5)cc34)CC2)c1 [Example 952, N-Methyl-3-{4-[6-(1H-pyrazol-4-yl)quinazolin-4-yl]piperazin-1-yl}benzene sulfonamide tri-trifluoroacetate] | > 8.00
8 | O=S(=O)(c1cccc(N2CCN(c3ncnc4ccc(-c5cn[nH]c5)cc34)CC2)c1)N1CCCCC1 [Example 955, 4-{4-[3-(Piperidine-1-sulfonyl)phenyl]piperazin-1-yl}-6-(1H-pyrazol-4-yl)quinazoline tri-trifluoroacetate] | > 8.00
9 | c1nc(N2CCN(C3CCCCC3)CC2)c2cc(-c3cn[nH]c3)ccc2n1 [Example 957, 4-(4-Cyclohexylpiperazin-1-yl)-6-(1H-pyrazol-4-yl)quinazoline tri-trifluoroacetate] | 7.00 to 8.00
10 | COc1ccc(-c2n[nH]cc2-c2ccc3ncnc(N4CCN(c5cccc(S(C)(=O)=O)c5)CC4)c3c2)cc1OC [Example 963, 6-[3-(3,4-Dimethoxyphenyl)-1H-pyrazol-4-yl]-4-[4-(3-methylsulfonylphenyl)piperazin-1-yl]-quinazoline tri-trifluoroacetate] | > 8.00
11 | CS(=O)(=O)c1cccc(N2CCN(c3ncnc4ccc(-c5c[nH]nc5-c5ccc6c(c5)OCO6)cc34)CC2)c1 [Example 964, 6-(3-Benzo[1,3]dioxol-5-yl-1H-pyrazol-4-yl)-4-[4-(3-methylsulfonylphenyl)piperazin-1-yl]quinazoline tri-trifluoroacetate] | > 8.00
12 | CS(=O)(=O)c1cccc(N2CCN(c3ncnc4ccc(-c5c[nH]nc5-c5ccc(C#N)s5)cc34)CC2)c1 [Example 967, 5-(4-{4-[4-(3-Methylsulfonylphenyl)piperazin-1-yl]quinazolin-6-yl}-1H-pyrazol-3-yl)thiophen-2-carbonitrile tri-trifluoroacetate] | > 8.00
13 | Cc1ccc(S(=O)(=O)N2CCN(c3ncnc4ccc(-c5cn[nH]c5)cc34)CC2)cc1 [Example 971, 4-[4-(Toluene-4-sulfonyl)piperazin-1-yl]-6-(1H-pyrazol-4-yl)quinazoline di-trifluoroacetate] | 6.00 to 7.00
14 | O=C(Nc1cccc(N2CCN(c3ncnc4ccc(-c5cn[nH]c5)cc34)CC2)c1)C1CC1 [Example 976, Cyclopropanecarboxylic acid (3-{4-[6-(1H-pyrazol-4-yl)quinazolin-4-yl]piperazin-1-yl}phenyl)amide tri-trifluoroacetate] | > 8.00
15 | O=C(Nc1cccc(N2CCN(c3ncnc4ccc(-c5cn[nH]c5)cc34)CC2)c1)C1(c2ccccc2)CC1 [Example 978, 1-Phenylcyclopropanecarboxylic acid (3-{4-[6-(1H-pyrazol-4-yl)quinazolin-4-yl]piperazin-1-yl}phenyl)amide tri-trifluoroacetate] | > 8.00
16 | O=S(=O)(Nc1cccc(N2CCN(c3ncnc4ccc(-c5cn[nH]c5)cc34)CC2)c1)c1cccs1 [Example 993, Thiophene-2-sulfonic acid (3-{4-[6-(1H-pyrazol-4-yl)quinazolin-4-yl]piperazin-1-yl)phenyl)amide tri-trifluoroacetate] | 7.00 to 8.00
17 | O=S1(=O)CCCN1c1cccc(N2CCN(c3ncnc4ccc(-c5cn[nH]c5)cc34)CC2)c1 [Example 1000, 4-{4-[3-(1,1-Dioxo-isothiazolidin-2-yl)phenyl]piperazin-1-yl}-6-(1H-pyrazol-4-yl)quinazoline tri-trifluoroacetate] | > 8.00
18 | CS(=O)(=O)c1cccc(N2CCCN(c3ncnc4ccc(-c5cn[nH]c5)cc34)CC2)c1 [Example 1002, 4-{4-(3-Methylsulfonyl)phenyl}-1,4-diazepan-1-yl}-6-(1H-4-pyrazolyl)quinazoline hydrochloride] | 7.00 to 8.00
19 | N#Cc1cc(N2CCN(c3ncnc4ccc(-c5cn[nH]c5)cc34)CC2)ccc1F [Example 1007, 2-Fluoro-5-{4-[6-(1H-4-pyrazolyl)-4-quinazolinyl]piperazin-1-yl}benzonitrile hydrochloride] | 7.00 to 8.00
20 | CS(=O)(=O)c1ccc(OC2CCN(c3ccnc4ccc(-c5cn[nH]c5)cc34)CC2)c(F)c1 [Example 1032, 4-[4-(2-Fluoro-4-methylsulfonylphenoxy)-piperidin-1-yl]-6-(1H-pyrazol-4-yl)quinoline trihydrochloride] | 7.00 to 8.00
21 | O=S(=O)(c1ccc(OC2CCN(c3ccnc4ccc(-c5c[nH]nc5C(F)(F)F)cc34)CC2)cc1)C(F)(F)F [Example 1034, 4-[4-(4-Trifluoromethylsulfonylphenoxy)piperidin-1-yl]-6-(3-trifluoromethyl-1H-pyrazol-4-yl)quinoline trihydrochloride] | 7.00 to 8.00
22 | Cc1cc(-c2ccnc3ccc(-c4c[nH]nc4C(F)(F)F)cc23)on1 [Example 1070, 4-(3-Methylisoxazol-5-yl)-6-(3-trifluoromethyl-1H-pyrazol-4-yl) quinoline] | 7.00 to 8.00
